Test results taken from PubChem BioAssay AID1053207 (Broad Institute, 2014).
Active and inactive are the calls of the source. No rule for the calls is given here.

Assays:
[1] = system: Vaccinia-infected cells, mCherry/Venus stage reporter fluorescence; test: Stage specific inhibitors, Vaccinia infected cells, mCherry fluorescence, dry powder confirmation (AID 1053207)
[2] = as above; conditions: Vaccinia-infected cells, mCherry/Venus stage reporter fluorescence; for max activity: measured here: Venus reporter max activity
[3] = measured here: mCherry reporter channel

Row | SMILES | AC50 [1] [nM] | AC50 [1, 3] [nM] | max activity ([2]; at 2.6 µM) [%] | AC50 ([1]; measured here: Venus reporter channel) [nM] | activity change, negative = inhibition ([2]; at 19.5 µM (top of the series)) | max activity ([2]; at 10 µM) [%] | max activity ([2]; at 1.2 µM) [%]
1 | C[C@@H](O)C#Cc1ccc2c(c1)O[C@@H](CN(C)Cc1ccc(-c3ccccc3Cl)cc1)[C@@H](C)CN([C@@H](C)CO)S2(=O)=O | 1190 | 1190 | 145 |  |  |  | 
2 | C[C@@H](O)C#Cc1ccc2c(c1)O[C@@H](CN(C)S(=O)(=O)c1ccc(-c3ccccc3)cc1)[C@@H](C)CN([C@@H](C)CO)S2(=O)=O |  | > 39000 |  | > 39000 | -18.5% (inactive) | -14.6 | 
3 | C[C@@H](O)C#Cc1ccc2c(c1)O[C@@H](CN(C)Cc1ccc(-c3ccccc3)cc1)[C@@H](C)CN([C@@H](C)CO)S2(=O)=O | 2350 | 2350 | 115 |  |  |  | 
4 | Cc1ccc(-c2ccc(CN(C)C[C@@H]3Oc4cc(C#C[C@@H](C)O)ccc4S(=O)(=O)N([C@@H](C)CO)C[C@@H]3C)cc2)cc1 | 1250 | 1250 |  |  |  |  | 122
5 | Cc1ccccc1-c1ccc(CN(C)C[C@@H]2Oc3cc(C#C[C@@H](C)O)ccc3S(=O)(=O)N([C@@H](C)CO)C[C@@H]2C)cc1 | 1230 | 1230 | 157 |  |  |  | 
6 | Cc1cccc(-c2ccc(CN(C)C[C@@H]3Oc4cc(C#C[C@@H](C)O)ccc4S(=O)(=O)N([C@@H](C)CO)C[C@@H]3C)cc2)c1 | 1660 | 1660 | 140 |  |  |  | 
